Laboratory results published in ChEMBL document CHEMBL3421582, “Quinofuracins A-E, produced by the fungus Staphylotrichum boninense PF1444, show p53-dependent growth suppression” (J Nat Prod, 2015).
Calls of active or inactive are those of the source. The calls are words filed in the database; no cut-off is given here.

Assays:
[1] = molecular target: Cellular tumor antigen p53 (Homo sapiens) (UniProt P04637); assay: Induction of wild type p53-dependent growth suppression of human MKN45 cells; type: cell-based; details: MKN-45
[2] = system: Cellular tumor antigen p53 (Homo sapiens), P04637 [UNDEFINED MUTATION]; assay: Induction of p53 mutant-dependent growth suppression of human MKN7 cells; type: cell-based; details: MKN-7
[3] = system: Cellular tumor antigen p53 (Homo sapiens), P04637 [UNDEFINED MUTATION]; assay: Induction of p53 mutant-dependent growth suppression of human […] cells
[4] = molecular target: Cellular tumor antigen p53 (Homo sapiens) (UniProt P04637); assay: Induction of wild type p53-dependent growth suppression of human MCF7 cells; type: cell-based
[5] = molecular target: Cellular tumor antigen p53 (Homo sapiens) (UniProt P04637); assay: Induction of wild type p53-dependent growth suppression of human RKO cells; type: cell-based
[6] = system: Cellular tumor antigen p53 (Homo sapiens), P04637 [UNDEFINED MUTATION]; assay: Induction of p53 mutant-dependent growth suppression of human HCT15 cells; type: cell-based; details: HCT-15
LNZTA3 [7] = assay: (§1) Cytotoxicity against p53-deficient human LNZTA3 cells assessed as growth inhibition after 72 hrs by MTT assay; type: functional, cell-based
[8] = molecular target: Cellular tumor antigen p53 (Homo sapiens) (UniProt P04637); assay: Induction of wild type p53-dependent growth suppression of human HCT116 cells; type: cell-based; details: HCT-116
[9] = molecular target: Cellular tumor antigen p53 (Homo sapiens) (UniProt P04637); assay: Induction of p53-dependent growth suppression of human LNZTA3 cells after 72 hrs by MTT assay; type: cell-based
[10] = as §1; type: functional, cell-based; details: LNZTA3, 72 h
LNZTA3 [11] = assay: Cytotoxicity against p53-deficient human LNZTA3 cells assessed as growth inhibition at >100 uM after 72 hrs by MTT assay; type: functional, cell-based

Sequence of Cellular tumor antigen p53 (Homo sapiens) (P04637 whole entry, looked up): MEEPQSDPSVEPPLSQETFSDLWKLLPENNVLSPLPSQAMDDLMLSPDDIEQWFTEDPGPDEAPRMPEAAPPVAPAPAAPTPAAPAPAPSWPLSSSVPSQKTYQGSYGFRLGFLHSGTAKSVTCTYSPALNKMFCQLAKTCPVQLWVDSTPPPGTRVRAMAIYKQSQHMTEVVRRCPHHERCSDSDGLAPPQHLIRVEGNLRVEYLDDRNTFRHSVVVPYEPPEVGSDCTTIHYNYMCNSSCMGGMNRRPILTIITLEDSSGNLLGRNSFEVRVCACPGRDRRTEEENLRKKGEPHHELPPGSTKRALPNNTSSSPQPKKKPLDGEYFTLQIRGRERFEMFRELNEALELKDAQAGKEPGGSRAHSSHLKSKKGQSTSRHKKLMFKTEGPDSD
Sequence of Cellular tumor antigen p53 (Homo sapiens), P04637 [UNDEFINED MUTATION] (P04637 whole entry, looked up, stated change not applied): as the sequence (P04637 whole entry, looked up) above

Structure (SMILES)	Activity [1]	Activity [2]	Activity [3]	Activity [4]	Activity [5]	Activity [6]	growth inhibition (GI) (LNZTA3 [7])	Activity [8]	Activity [9]	IC50 [10]	growth inhibition (GI) (LNZTA3 [11])
O=C1c2cc(O[C@@H]3O[C@@H]([C@H](O)CO)[C@H](O)[C@H]3O)cc(O)c2C(=O)c2c1cc1c(c2O)[C@@H]2CCO[C@@H]2O1	Active	Active	Active	Active	Active	Active	Active	Active	Active	–	–
CCCCC[C@H](O[C@@H]1O[C@@H]([C@H](O)CO)[C@H](O)[C@H]1O)c1c(O)cc2c(c1O)C(=O)c1c(O)cc(O)cc1C2=O	Active	Active	Active	Active	Active	Active	–	Active	–	32 µM	–
CCCCC[C@H](O)c1c(O)cc2c(c1O)C(=O)c1c(O)cc(O)cc1C2=O	–	–	–	–	–	–	–	–	Active	–	–
CCCCC[C@H](O[C@@H]1O[C@@H]([C@H](O)CO)[C@H](O)[C@H]1OC(C)=O)c1c(O)cc2c(c1O)C(=O)c1c(O)cc(O)cc1C2=O	Active	Active	Active	Active	Active	Active	–	Active	–	32 µM	–
CCCCC[C@H](O)c1c(O[C@@H]2O[C@@H]([C@H](O)CO)[C@H](O)[C@H]2O)cc2c(c1O)C(=O)c1c(O)cc(O)cc1C2=O	Active	Active	Active	Active	Active	Active	Active	Active	Active	–	–
CC(=O)CCC[C@H](O[C@@H]1O[C@@H]([C@H](O)CO)[C@H](O)[C@H]1O)c1c(O)cc2c(c1O)C(=O)c1c(O)cc(O)cc1C2=O	Active	Active	Active	Active	Active	Active	–	Active	Active	–	inactive
